Common to all, as to assay: Antibacterial activity (MIC), standard method of the Japan Society of Chemotherapy
What all share (assay type): cell-based

For experiment [1], the system named is E. coli, NIHJ. How it is done:
(§1) The antibacterial activity of each compound of the present invention was measured in accordance with the standard method specified by the Japan Society of Chemotherapy, with the results shown in the following table as MIC values (μg/ml).

The subject of experiment [2] is Pr. mirabilis, IFO-3849. How it is done: as §1
The test system of experiment [3] is Pr. vulgaris, 08601. How it is done: as §1
In experiment [4] the test system is Ps. aeruginasa, 32121. How it is done:
as §1

In experiment [5] the test system is Ps. aeruginosa, 32104. How it is done: as §1
Experiment [6] has as its system S. aureus, 209P. How it is done: as §1
Experiment [7] deals with S. aureus, 870307. How it is done:
as §1

Experiment [8] has as its system S. epidermidis, 56500. How it is done:
as §1

The subject of experiment [9] is S. flexneli, 2A 5503. How it is done: as §1
In experiment [10] the test system is S. maltophilia, IID-1275. How it is done: as §1
The test system of experiment [11] is S. pneumoniae, J24. How it is done: as §1
In experiment [12] the test system is Ser. marcescens, 10100. How it is done:
as §1

In experiment [13] the test system is Str. faecalis, ATCC-19433. How it is done: as §1
For experiment [14], the system named is Str. pyogenes, G-36. How it is done: as §1
Where [15] appears, read: Escherichia coli, read-out: MIC.
Where [16] appears, read: Proteus mirabilis, IFO3849, read-out: MIC.
[17] abbreviates: Proteus vulgaris, read-out: MIC.
[18] abbreviates: Pseudomonas aeruginosa, read-out: MIC.
Setting [19] is: Staphylococcus aureus, read-out: MIC.
[20] abbreviates: Staphylococcus epidermidis, read-out: MIC.
The mark [21] stands for this setting: Stenotrophomonas maltophilia, IID1275, read-out: MIC.
Where [22] appears, read: Streptococcus pneumoniae, read-out: MIC.
The mark [23] stands for this setting: Serratia marcescens, read-out: MIC.
Setting [24] is: Enterococcus faecalis, ATCC19433, read-out: MIC.
The mark [25] stands for this setting: Streptococcus pyogenes, G36, read-out: MIC.

For 5 molecules, MIC results are on record in patent US6448266B1, “Substituted cyclobutylamine derivatives” (Daiichi Pharmaceutical Co., Ltd., priority 1997, dated 2002).

In brackets after ≈: the same amount, converted by molar mass. Where two headings read alike, the source gives them in different places. Bounds are passed on as bounds.

As a reminder, the MIC is the lowest concentration that inhibits growth of the organism.

On to `Cc1c(N2CCC(C3(N)CC(F)C3)C2)c(F)c(N)c2c(=O)c(C(=O)O)cn([C@@H]3C[C@@H]3F)c12` (stereo partly drawn) [Inventive Example 1, 5-Amino-7-[3-(3-amino-1-fluorocyclobutan-3-yl)pyrrolidin-1-yl]-6-fluoro-1-[2-(S)-fluoro-1-(R)-cyclopropyl]-8-methyl-1,4-dihydro-4-oxoguinoline-3-carboxylic acid], for which the MIC entry in [1] was “≦0.003 μg/ml”; in experiment [2], 0.025 µg/mL (≈ 0.0555 µM); in experiment [3], 0.013 µg/mL (≈ 0.0289 µM); in [4] it was 0.05 µg/mL (≈ 0.111 µM); in experiment [5] it was 0.20 µg/mL (≈ 0.444 µM); in experiment [6], “≦0.003 μg/ml”. The MIC is 0.013 µg/mL (≈ 0.0289 µM) in experiment [7]; “≦0.003 μg/ml” in experiment [8]; “≦0.003 μg/ml” in [9] (S. flexneli, 2A 5503); 0.05 µg/mL (≈ 0.111 µM) in experiment [10]; “≦0.003 μg/ml” in experiment [11]; 0.10 µg/mL (≈ 0.222 µM) in experiment [12]. The MIC in experiment [13] is 0.025 µg/mL (≈ 0.0555 µM); in experiment [14], “≦0.003 μg/ml”.

In the case of `Cc1c(N2CCC(C3(N)CC(F)(F)C3)C2)c(F)c(N)c2c(=O)c(C(=O)O)cn([C@@H]3C[C@@H]3F)c12` (stereo partly drawn) [Inventive Example 5, 5-Amino-7-[3-(3-amino-1,1-difluorocyclobutan-3-yl)pyrrolidin-1-yl]-6-fluoro-1-[2-(S)-fluoro-1-(R)-cyclopropyl]-8-methyl-1,4-dihydro-4-oxoguinoline-3-carboxylic acid], the MIC in experiment [1] was 0.006 µg/mL (≈ 0.0128 µM); in experiment [2] it was 0.05 µg/mL (≈ 0.107 µM); in experiment [3], 0.05 µg/mL (≈ 0.107 µM); in experiment [4], 0.20 µg/mL (≈ 0.427 µM); in [5], 0.39 µg/mL (≈ 0.833 µM); in experiment [6], “≦0.003 μg/ml”. Also, the MIC in [7] was 0.025 µg/mL (≈ 0.0534 µM); in experiment [8], “≦0.003 μg/ml”; in experiment [9] (S. flexneli, 2A 5503), 0.006 µg/mL (≈ 0.0128 µM); in [10], 0.10 µg/mL (≈ 0.213 µM); in [11], “≦0.003 μg/ml”; in experiment [12], 0.20 µg/mL (≈ 0.427 µM). Also, the results for the MIC in experiment [13] and in [14] were 0.025 µg/mL (≈ 0.0534 µM) and 0.006 µg/mL (≈ 0.0128 µM), respectively.

As for `COc1c(N2CCC(C3(N)CC(F)(F)C3)C2)c(F)cc2c(=O)c(C(=O)O)cn([C@@H]3C[C@@H]3F)c12` (stereo partly drawn) [Inventive Example 3, 7-[3-(3-Amino-1,1-difluorocyclobutan-3-yl)pyrrolidin-1-yl]-6-fluoro-1-[2-(S)-fluoro-1-(R)-cyclopropyl]-8-methoxy-1,4-dihydro-4-oxoquinoline-3-carboxylic acid], the MIC is 0.013 µg/mL (≈ 0.0277 µM) in [1] (setting [15]); 0.1 µg/mL (≈ 0.213 µM) in experiment [2] (setting [16]); 0.025 µg/mL (≈ 0.0533 µM) in [3] (setting [17]); 0.39 µg/mL (≈ 0.831 µM) in experiment [4] (read-out: MIC); 0.78 µg/mL (≈ 1.66 µM) in experiment [5] (setting [18]); ≤ 0.003 µg/mL in experiment [6] (setting [19]). The minimal inhibitory concentration (MIC) was 0.025 µg/mL (≈ 0.0533 µM) in experiment [7] (setting [19]); 0.013 µg/mL (≈ 0.0277 µM) in experiment [8] (setting [20]); 0.025 µg/mL (≈ 0.0533 µM) in experiment [9]; 0.2 µg/mL (≈ 0.426 µM) in experiment [10] (setting [21]); 0.006 µg/mL (≈ 0.0128 µM) in experiment [11] (setting [22]); 0.39 µg/mL (≈ 0.831 µM) in [12] (setting [23]). Moreover, the minimum inhibitory concentration (MIC) came to 0.025 µg/mL (≈ 0.0533 µM) in experiment [13] (setting [24]) and 0.006 µg/mL (≈ 0.0128 µM) in experiment [14] (setting [25]).

For `COc1c(N2CCC(C3(N)CC(F)C3)C2)c(F)cc2c(=O)c(C(=O)O)cn([C@@H]3C[C@@H]3F)c12` (stereo partly drawn) [Inventive Example 6, 7-[3-(3-Amino-1-fluoro-cyclobutan-3-yl)-pyrrolidin-1-yl]-6-fluoro-1-[2-(S)-fluoro-1-(R)-cyclopropyl]-8-methoxy-1,4-dihydro-4-oxoquinoline-3-carboxylic acid], the MIC in experiment [1] (setting [15]) is ≤ 0.003 µg/mL; in experiment [2] (setting [16]), 0.05 µg/mL (≈ 0.111 µM); in [3] (setting [17]) it was 0.025 µg/mL (≈ 0.0554 µM); in experiment [4] (read-out: MIC), 0.2 µg/mL (≈ 0.443 µM); in [5] (setting [18]), 0.39 µg/mL (≈ 0.864 µM); in experiment [6] (setting [19]), ≤ 0.003 µg/mL. Besides, the MIC is 0.025 µg/mL (≈ 0.0554 µM) in experiment [7] (setting [19]); 0.006 µg/mL (≈ 0.0133 µM) in experiment [8] (setting [20]); 0.013 µg/mL (≈ 0.0288 µM) in experiment [9]; 0.2 µg/mL (≈ 0.443 µM) in experiment [10] (setting [21]); ≤ 0.003 µg/mL in experiment [11] (setting [22]); 0.1 µg/mL (≈ 0.222 µM) in [12] (setting [23]). The MIC in [13] (setting [24]) was determined as 0.025 µg/mL (≈ 0.0554 µM); in experiment [14] (setting [25]), 0.006 µg/mL (≈ 0.0133 µM).

As to `Nc1c(F)c(N2CCC(C3(N)CC(F)C3)C2)c(F)c2c1c(=O)c(C(=O)O)cn2[C@@H]1C[C@@H]1F` (stereo partly drawn) [Inventive Example 7, 5-Amino-7-[3-(3-amino-1-fluoro-cyclobutan-3-yl)pyrrolidin-1-yl]-6,8-difluoro-1-[2-(S)-fluoro-1-(R)-cyclopropyl]-1,4-dihydro-4-oxoquinoline-3-carboxylic acid], the MIC was ≤ 0.003 µg/mL in experiment [1] (setting [15]); 0.025 µg/mL (≈ 0.055 µM) in experiment [2] (setting [16]); 0.025 µg/mL (≈ 0.055 µM) in [3] (setting [17]); 0.05 µg/mL (≈ 0.11 µM) in experiment [4] (read-out: MIC); 0.1 µg/mL (≈ 0.22 µM) in experiment [5] (setting [18]); ≤ 0.003 µg/mL in experiment [6] (setting [19]). Further, the minimal inhibitory concentration (MIC) in [7] (setting [19]) was 0.006 µg/mL (≈ 0.0132 µM); in experiment [8] (setting [20]), ≤ 0.003 µg/mL; in [9], ≤ 0.003 µg/mL; in experiment [10] (setting [21]), 0.05 µg/mL (≈ 0.11 µM); in [11] (setting [22]) it was ≤ 0.003 µg/mL; in [12] (setting [23]) it was 0.05 µg/mL (≈ 0.11 µM). Further, the MIC in experiment [13] (setting [24]) is 0.025 µg/mL (≈ 0.055 µM); in experiment [14] (setting [25]), ≤ 0.003 µg/mL.
